According to the kinase profiling compilation of Christmann-Franck et al. (2016):

Key:
Assay in all cases: radiometric filter-binding kinase assay, Kinase HotSpot
Settings in all cases: compound 0.5 µM; ATP 10 µM
AURKA (human) = AURKA (human) (UniProt O14965)
AURKC (human) = AURKC (human) (UniProt Q9UQB9)
BRAF (human) = BRAF (human) (UniProt P15056)
CAMK2A (human) = CAMK2A (human) (UniProt Q9UQM7)
CDC42BPA (human) = CDC42BPA (human) (UniProt Q5VT25)
CDK2 CCNE1 (human) = CDK2 CCNE1 (human) (UniProt P24941+P24864)
CDK4 CCND3 (human) = CDK4 CCND3 (human) (UniProt P30281+P11802)
CDK5 CDK5R1 p25 (human) = CDK5 CDK5R1 p25 (human) (UniProt Q00535+Q15078)
CSK (human) = CSK (human) (UniProt P41240)
CSNK1D (human) = CSNK1D (human) (UniProt P48730)
CSNK1G3 (human) = CSNK1G3 (human) (UniProt Q9Y6M4)
DSTYK (human) = DSTYK (human) (UniProt Q6XUX3)
EPHB1 (human) = EPHB1 (human) (UniProt P54762)
EPHB2 (human) = EPHB2 (human) (UniProt P29323)
FLT3 (human) = FLT3 (human) (UniProt P36888)
GSG2 (human) = GSG2 (human) (UniProt Q8TF76)
HIPK4 (human) = HIPK4 (human) (UniProt Q8NE63)
INSR (human) = INSR (human) (UniProt P06213)
ITK (human) = ITK (human) (UniProt Q08881)
JAK3 JH1 JH2 (human) = JAK3 JH1 JH2 (human) (UniProt P52333)
Chain of JAK3 JH1 JH2 (human) (P52333 whole entry, looked up): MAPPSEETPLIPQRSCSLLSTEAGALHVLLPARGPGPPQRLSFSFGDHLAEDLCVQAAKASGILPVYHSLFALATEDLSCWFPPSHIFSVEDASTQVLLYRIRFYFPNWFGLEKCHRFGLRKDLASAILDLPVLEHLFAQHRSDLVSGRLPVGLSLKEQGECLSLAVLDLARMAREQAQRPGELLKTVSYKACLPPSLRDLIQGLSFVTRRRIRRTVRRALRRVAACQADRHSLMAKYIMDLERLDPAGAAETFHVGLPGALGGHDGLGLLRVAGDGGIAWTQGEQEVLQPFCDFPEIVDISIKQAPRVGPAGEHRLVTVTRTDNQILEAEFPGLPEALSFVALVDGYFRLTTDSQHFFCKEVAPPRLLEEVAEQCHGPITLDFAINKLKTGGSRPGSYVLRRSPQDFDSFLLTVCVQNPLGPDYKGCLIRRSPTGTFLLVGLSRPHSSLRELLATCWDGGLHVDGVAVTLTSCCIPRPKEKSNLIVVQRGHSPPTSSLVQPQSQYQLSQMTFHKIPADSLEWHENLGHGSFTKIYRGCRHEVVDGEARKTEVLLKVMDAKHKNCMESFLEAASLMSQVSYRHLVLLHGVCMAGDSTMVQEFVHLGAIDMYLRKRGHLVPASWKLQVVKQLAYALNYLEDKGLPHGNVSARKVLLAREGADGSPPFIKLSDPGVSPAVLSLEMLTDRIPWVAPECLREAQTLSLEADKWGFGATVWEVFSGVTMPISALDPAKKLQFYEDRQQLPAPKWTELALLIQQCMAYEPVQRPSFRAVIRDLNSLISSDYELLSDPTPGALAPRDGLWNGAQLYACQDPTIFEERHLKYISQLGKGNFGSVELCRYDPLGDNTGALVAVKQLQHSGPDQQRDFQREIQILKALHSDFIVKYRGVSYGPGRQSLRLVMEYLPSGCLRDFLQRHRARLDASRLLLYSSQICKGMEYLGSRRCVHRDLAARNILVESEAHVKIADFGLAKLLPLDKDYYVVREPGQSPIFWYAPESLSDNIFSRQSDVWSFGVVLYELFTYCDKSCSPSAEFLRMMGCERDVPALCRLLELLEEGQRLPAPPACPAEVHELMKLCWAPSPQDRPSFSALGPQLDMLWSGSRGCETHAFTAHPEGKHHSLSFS

LIMK1 (human) = LIMK1 (human) (UniProt P53667)
LRRK2 (human) = LRRK2 (human) (UniProt Q5S007)
MAP3K3 (human) = MAP3K3 (human) (UniProt Q99759)
Chain of MAP3K3 (human) (Q99759 whole entry, looked up): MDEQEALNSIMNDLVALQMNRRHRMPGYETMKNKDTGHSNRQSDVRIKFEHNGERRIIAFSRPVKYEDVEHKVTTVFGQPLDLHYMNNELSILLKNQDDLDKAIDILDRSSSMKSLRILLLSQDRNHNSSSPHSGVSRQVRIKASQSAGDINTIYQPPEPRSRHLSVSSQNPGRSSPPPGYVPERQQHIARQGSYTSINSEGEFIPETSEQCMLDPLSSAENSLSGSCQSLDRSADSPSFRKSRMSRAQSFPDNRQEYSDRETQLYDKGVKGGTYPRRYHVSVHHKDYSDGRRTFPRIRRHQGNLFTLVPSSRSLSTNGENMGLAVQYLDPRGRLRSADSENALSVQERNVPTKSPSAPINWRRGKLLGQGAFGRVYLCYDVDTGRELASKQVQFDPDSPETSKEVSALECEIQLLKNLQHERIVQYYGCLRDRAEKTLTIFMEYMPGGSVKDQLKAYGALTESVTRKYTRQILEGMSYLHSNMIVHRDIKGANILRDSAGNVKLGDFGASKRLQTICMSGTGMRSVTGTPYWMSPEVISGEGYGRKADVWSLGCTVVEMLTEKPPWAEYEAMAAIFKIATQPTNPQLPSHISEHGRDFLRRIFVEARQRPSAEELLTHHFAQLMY

MAP3K8 (human) = MAP3K8 (human) (UniProt P41279)
MAP3K9 (human) = MAP3K9 (human) (UniProt P80192)
MAPK8 (human) = MAPK8 (human) (UniProt P45983)
MARK1 (human) = MARK1 (human) (UniProt Q9P0L2)
Chain of MARK1 (human) (Q9P0L2 whole entry, looked up): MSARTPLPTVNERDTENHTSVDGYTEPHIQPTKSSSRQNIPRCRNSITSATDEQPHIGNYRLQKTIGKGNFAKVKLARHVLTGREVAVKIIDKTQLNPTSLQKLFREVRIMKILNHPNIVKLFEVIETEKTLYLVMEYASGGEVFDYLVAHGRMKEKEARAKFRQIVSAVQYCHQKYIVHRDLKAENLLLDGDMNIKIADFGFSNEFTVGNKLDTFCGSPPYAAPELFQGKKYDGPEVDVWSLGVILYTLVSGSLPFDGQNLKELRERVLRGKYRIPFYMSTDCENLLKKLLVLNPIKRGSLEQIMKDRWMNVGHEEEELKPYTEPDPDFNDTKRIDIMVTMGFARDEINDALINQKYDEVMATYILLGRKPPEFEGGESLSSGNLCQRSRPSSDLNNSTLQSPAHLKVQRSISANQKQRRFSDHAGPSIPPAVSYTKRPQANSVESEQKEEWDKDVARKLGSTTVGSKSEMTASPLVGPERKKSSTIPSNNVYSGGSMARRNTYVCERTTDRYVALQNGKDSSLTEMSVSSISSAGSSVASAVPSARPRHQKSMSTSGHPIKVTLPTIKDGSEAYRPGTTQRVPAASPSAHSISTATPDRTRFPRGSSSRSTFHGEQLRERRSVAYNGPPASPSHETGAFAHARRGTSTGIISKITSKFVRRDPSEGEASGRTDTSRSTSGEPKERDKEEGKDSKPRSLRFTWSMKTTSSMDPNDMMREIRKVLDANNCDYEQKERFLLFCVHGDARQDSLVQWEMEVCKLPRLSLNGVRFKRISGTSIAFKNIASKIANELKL

MARK3 (human) = MARK3 (human) (UniProt P27448)
MATK (human) = MATK (human) (UniProt P42679)
MELK (human) = MELK (human) (UniProt Q14680)
MUSK (human) = MUSK (human) (UniProt O15146)
NUAK1 (human) = NUAK1 (human) (UniProt O60285)
Chain of NUAK1 (human) (O60285 whole entry, looked up): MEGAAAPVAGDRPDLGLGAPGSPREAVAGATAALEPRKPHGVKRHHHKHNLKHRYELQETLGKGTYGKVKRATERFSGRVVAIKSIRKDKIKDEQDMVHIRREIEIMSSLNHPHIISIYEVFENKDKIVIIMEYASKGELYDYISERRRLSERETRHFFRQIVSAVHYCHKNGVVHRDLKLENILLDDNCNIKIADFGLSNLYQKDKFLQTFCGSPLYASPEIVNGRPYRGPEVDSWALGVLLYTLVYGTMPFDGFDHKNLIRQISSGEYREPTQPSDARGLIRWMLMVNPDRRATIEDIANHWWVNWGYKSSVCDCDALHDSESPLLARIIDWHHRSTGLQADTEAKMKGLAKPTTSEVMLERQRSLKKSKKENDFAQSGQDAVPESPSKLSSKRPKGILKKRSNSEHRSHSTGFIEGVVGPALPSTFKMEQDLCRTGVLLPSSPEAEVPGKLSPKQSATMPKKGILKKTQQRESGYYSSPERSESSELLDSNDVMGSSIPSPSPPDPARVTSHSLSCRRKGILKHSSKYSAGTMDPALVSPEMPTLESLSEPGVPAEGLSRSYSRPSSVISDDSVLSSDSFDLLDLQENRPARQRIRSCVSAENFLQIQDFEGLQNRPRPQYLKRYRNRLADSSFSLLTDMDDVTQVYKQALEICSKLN

PAK6 (human) = PAK6 (human) (UniProt Q9NQU5)
PAK7 (human) = PAK7 (human) (UniProt Q9P286)
PIM3 (human) = PIM3 (human) (UniProt Q86V86)
PKN1 (human) = PKN1 (human) (UniProt Q16512)
SGK3 (human) = SGK3 (human) (UniProt Q96BR1)
STK10 (human) = STK10 (human) (UniProt O94804)
Chain of STK10 (human) (O94804 whole entry, looked up): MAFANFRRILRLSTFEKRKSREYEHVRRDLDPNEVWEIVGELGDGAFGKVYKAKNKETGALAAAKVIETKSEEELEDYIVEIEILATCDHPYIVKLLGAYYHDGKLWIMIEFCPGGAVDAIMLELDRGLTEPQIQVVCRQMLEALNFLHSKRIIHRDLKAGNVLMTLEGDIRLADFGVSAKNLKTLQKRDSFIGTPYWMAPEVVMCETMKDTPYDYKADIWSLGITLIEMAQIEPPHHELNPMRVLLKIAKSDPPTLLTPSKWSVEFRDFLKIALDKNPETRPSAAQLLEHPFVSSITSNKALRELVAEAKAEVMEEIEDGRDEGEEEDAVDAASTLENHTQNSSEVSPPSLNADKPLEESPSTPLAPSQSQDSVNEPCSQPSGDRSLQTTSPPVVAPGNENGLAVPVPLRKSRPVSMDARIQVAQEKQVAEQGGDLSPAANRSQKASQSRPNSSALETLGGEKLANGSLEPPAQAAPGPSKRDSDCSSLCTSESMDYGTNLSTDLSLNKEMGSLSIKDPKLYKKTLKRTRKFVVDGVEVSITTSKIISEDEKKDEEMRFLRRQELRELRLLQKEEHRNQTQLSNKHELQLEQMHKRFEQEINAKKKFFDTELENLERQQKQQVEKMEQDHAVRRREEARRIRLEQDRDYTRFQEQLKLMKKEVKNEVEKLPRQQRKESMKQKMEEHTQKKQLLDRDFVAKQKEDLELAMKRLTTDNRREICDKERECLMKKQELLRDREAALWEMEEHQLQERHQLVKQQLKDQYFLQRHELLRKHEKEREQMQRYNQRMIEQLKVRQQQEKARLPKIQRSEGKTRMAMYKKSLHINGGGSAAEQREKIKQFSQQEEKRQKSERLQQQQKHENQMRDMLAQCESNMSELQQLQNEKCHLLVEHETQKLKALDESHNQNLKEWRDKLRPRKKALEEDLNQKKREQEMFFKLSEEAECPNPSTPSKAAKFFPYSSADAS

STK17A (human) = STK17A (human) (UniProt Q9UEE5)
TGFBR1 (human) = TGFBR1 (human) (UniProt P36897)
ULK2 (human) = ULK2 (human) (UniProt Q8IYT8)

Chain of CAMK2A (human) (Q9UQM7 whole entry, looked up): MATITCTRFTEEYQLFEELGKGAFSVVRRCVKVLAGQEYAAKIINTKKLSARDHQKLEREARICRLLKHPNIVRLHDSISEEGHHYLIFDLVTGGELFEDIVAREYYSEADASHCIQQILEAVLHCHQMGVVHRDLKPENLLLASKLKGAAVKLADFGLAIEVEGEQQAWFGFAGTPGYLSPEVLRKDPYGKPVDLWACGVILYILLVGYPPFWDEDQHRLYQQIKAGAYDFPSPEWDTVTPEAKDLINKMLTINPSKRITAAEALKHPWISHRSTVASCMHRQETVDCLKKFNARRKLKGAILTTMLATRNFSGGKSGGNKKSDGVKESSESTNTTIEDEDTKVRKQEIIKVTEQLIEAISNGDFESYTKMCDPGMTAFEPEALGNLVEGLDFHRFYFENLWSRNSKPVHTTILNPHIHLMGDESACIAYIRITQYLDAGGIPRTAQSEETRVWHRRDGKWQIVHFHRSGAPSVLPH

SMILES: Cc1[nH]c(/C=C2\C(=O)Nc3ccc(S(=O)(=O)N(C)c4cccc(Cl)c4)cc32)c(C)c1C(=O)N1CCN(C)CC1
- residual activity (AURKA (human)): 27.6%
- residual activity (AURKC (human)): 37.9%
- residual activity (BRAF (human)): 91.9%
- residual activity (CAMK2A (human)): 73.8%
- residual activity (CDC42BPA (human)): 105%
- residual activity (CDK2 CCNE1 (human)): 87%
- residual activity (CDK4 CCND3 (human)): 101%
- residual activity (CDK5 CDK5R1 p25 (human)): 82%
- residual activity (CSK (human)): 78.2%
- residual activity (CSNK1D (human)): 83.5%
- residual activity (CSNK1G3 (human)): 93.3%
- residual activity (DSTYK (human)): 97.2%
- residual activity (EPHB1 (human)): 84.5%
- residual activity (EPHB2 (human)): 91.8%
- residual activity (FLT3 (human)): 26.5%
- residual activity (GSG2 (human)): 102%
- residual activity (HIPK4 (human)): 103%
- residual activity (INSR (human)): 98.8%
- residual activity (ITK (human)): 87.4%
- residual activity (JAK3 JH1 JH2 (human)): 47%
- residual activity (LIMK1 (human)): 87.9%
- residual activity (LRRK2 (human)): 6.63%
- residual activity (MAP3K3 (human)): 63.6%
- residual activity (MAP3K8 (human)): 82.9%
- residual activity (MAP3K9 (human)): 95.2%
- residual activity (MAPK8 (human)): 86.9%
- residual activity (MARK1 (human)): 62.5%
- residual activity (MARK3 (human)): 41.9%
- residual activity (MATK (human)): 100%
- residual activity (MELK (human)): 78.9%
- residual activity (MUSK (human)): 84.2%
- residual activity (NUAK1 (human)): 15.9%
- residual activity (PAK6 (human)): 108%
- residual activity (PAK7 (human)): 97.1%
- residual activity (PIM3 (human)): 106%
- residual activity (PKN1 (human)): 86.4%
- residual activity (SGK3 (human)): 101%
- residual activity (STK10 (human)): 9.05%
- residual activity (STK17A (human)): 97%
- residual activity (TGFBR1 (human)): 103%
- residual activity (ULK2 (human)): 16.8%

SMILES: c1ccc(-c2n[nH]c3c2oc2ccccc23)cc1
- residual activity (AURKA (human)): 103%
- residual activity (AURKC (human)): 96.7%
- residual activity (BRAF (human)): 96.9%
- residual activity (CAMK2A (human)): 110%
- residual activity (CDC42BPA (human)): 87.4%
- residual activity (CDK2 CCNE1 (human)): 95.6%
- residual activity (CDK4 CCND3 (human)): 101%
- residual activity (CDK5 CDK5R1 p25 (human)): 99%
- residual activity (CSK (human)): 92.6%
- residual activity (CSNK1D (human)): 93.1%
- residual activity (CSNK1G3 (human)): 88.5%
- residual activity (DSTYK (human)): 82.9%
- residual activity (EPHB1 (human)): 103%
- residual activity (EPHB2 (human)): 83.1%
- residual activity (FLT3 (human)): 12.1%
- residual activity (GSG2 (human)): 99.3%
- residual activity (HIPK4 (human)): 103%
- residual activity (INSR (human)): 94.4%
- residual activity (ITK (human)): 80.4%
- residual activity (JAK3 JH1 JH2 (human)): 132%
- residual activity (LIMK1 (human)): 71.2%
- residual activity (LRRK2 (human)): 91.4%
- residual activity (MAP3K3 (human)): 94.7%
- residual activity (MAP3K8 (human)): 105%
- residual activity (MAP3K9 (human)): 97.5%
- residual activity (MAPK8 (human)): 79.6%
- residual activity (MARK1 (human)): 98.6%
- residual activity (MARK3 (human)): 96.5%
- residual activity (MATK (human)): 94%
- residual activity (MELK (human)): 77%
- residual activity (MUSK (human)): 72.6%
- residual activity (NUAK1 (human)): 96.2%
- residual activity (PAK6 (human)): 87.5%
- residual activity (PAK7 (human)): 70.9%
- residual activity (PIM3 (human)): 117%
- residual activity (PKN1 (human)): 94.1%
- residual activity (SGK3 (human)): 111%
- residual activity (STK10 (human)): 108%
- residual activity (STK17A (human)): 84.4%
- residual activity (TGFBR1 (human)): 94.9%
- residual activity (ULK2 (human)): 96.4%

SMILES: O=C1NC(=O)/C(=C/c2ccc3c(c2)OC(F)(F)O3)S1
- residual activity (AURKA (human)): 92.4%
- residual activity (AURKC (human)): 98.1%
- residual activity (BRAF (human)): 96.3%
- residual activity (CAMK2A (human)): 96.8%
- residual activity (CDC42BPA (human)): 98.5%
- residual activity (CDK2 CCNE1 (human)): 89.9%
- residual activity (CDK4 CCND3 (human)): 98.2%
- residual activity (CDK5 CDK5R1 p25 (human)): 89.7%
- residual activity (CSK (human)): 88%
- residual activity (CSNK1D (human)): 98.9%
- residual activity (CSNK1G3 (human)): 91.4%
- residual activity (DSTYK (human)): 89.3%
- residual activity (EPHB1 (human)): 95.6%
- residual activity (EPHB2 (human)): 95.8%
- residual activity (FLT3 (human)): 92.9%
- residual activity (GSG2 (human)): 96.7%
- residual activity (HIPK4 (human)): 99.4%
- residual activity (INSR (human)): 106%
- residual activity (ITK (human)): 92.9%
- residual activity (JAK3 JH1 JH2 (human)): 98.6%
- residual activity (LIMK1 (human)): 96.4%
- residual activity (LRRK2 (human)): 103%
- residual activity (MAP3K3 (human)): 103%
- residual activity (MAP3K8 (human)): 93%
- residual activity (MAP3K9 (human)): 101%
- residual activity (MAPK8 (human)): 95.1%
- residual activity (MARK1 (human)): 97.2%
- residual activity (MARK3 (human)): 92.3%
- residual activity (MATK (human)): 93.2%
- residual activity (MELK (human)): 94.4%
- residual activity (MUSK (human)): 70.9%
- residual activity (NUAK1 (human)): 91.8%
- residual activity (PAK6 (human)): 103%
- residual activity (PAK7 (human)): 93%
- residual activity (PIM3 (human)): 39.8%
- residual activity (PKN1 (human)): 98.5%
- residual activity (SGK3 (human)): 94.7%
- residual activity (STK10 (human)): 98.6%
- residual activity (STK17A (human)): 90.4%
- residual activity (TGFBR1 (human)): 102%
- residual activity (ULK2 (human)): 100%

SMILES: N#C/C(=C(/N)Sc1ccc(N)cc1)c1ccccc1C(F)(F)F
- residual activity (AURKA (human)): 103%
- residual activity (AURKC (human)): 97.5%
- residual activity (BRAF (human)): 95%
- residual activity (CAMK2A (human)): 111%
- residual activity (CDC42BPA (human)): 103%
- residual activity (CDK2 CCNE1 (human)): 95.4%
- residual activity (CDK4 CCND3 (human)): 108%
- residual activity (CDK5 CDK5R1 p25 (human)): 93.1%
- residual activity (CSK (human)): 90.9%
- residual activity (CSNK1D (human)): 106%
- residual activity (CSNK1G3 (human)): 103%
- residual activity (DSTYK (human)): 113%
- residual activity (EPHB1 (human)): 98.8%
- residual activity (EPHB2 (human)): 101%
- residual activity (FLT3 (human)): 107%
- residual activity (GSG2 (human)): 99.9%
- residual activity (HIPK4 (human)): 100%
- residual activity (INSR (human)): 101%
- residual activity (ITK (human)): 97.4%
- residual activity (JAK3 JH1 JH2 (human)): 101%
- residual activity (LIMK1 (human)): 98.7%
- residual activity (LRRK2 (human)): 100%
- residual activity (MAP3K3 (human)): 97.7%
- residual activity (MAP3K8 (human)): 96.5%
- residual activity (MAP3K9 (human)): 85.9%
- residual activity (MAPK8 (human)): 112%
- residual activity (MARK1 (human)): 99.9%
- residual activity (MARK3 (human)): 107%
- residual activity (MATK (human)): 90.7%
- residual activity (MELK (human)): 96.1%
- residual activity (MUSK (human)): 91.9%
- residual activity (NUAK1 (human)): 95.9%
- residual activity (PAK6 (human)): 107%
- residual activity (PAK7 (human)): 104%
- residual activity (PIM3 (human)): 111%
- residual activity (PKN1 (human)): 104%
- residual activity (SGK3 (human)): 105%
- residual activity (STK10 (human)): 88.7%
- residual activity (STK17A (human)): 82.6%
- residual activity (TGFBR1 (human)): 98.3%
- residual activity (ULK2 (human)): 115%
